Where a name gives a salt, the structure may show the parent alone.
What was measured:
[1] = tested on: acetylcholine-induced bronchoconstriction in guinea pigs; assay: Effects on acetylcholine-induced bronchoconstriction in guinea pigs; format: in vivo, guinea pig; settings: Cavia porcellus; 24 hours after 25 μg/kg of the compounds were administered; read-out: percentage of bronchoconstriction suppression with respect to the acetylcholine stimulation
Experimental: These in vivo assays are used to evaluate the bronchoprotective effects based on the M3 muscarinic receptor antagonist activity and the β2 adrenergic receptor agonist activity of test compounds. Hartley male guinea pigs (Nippon SLC, Inc.) weighing about 400-500 g were used. The animals were anesthetized by inhalation of Fluothane (Takeda Pharmaceutical Company Limited) in a plastic box. The test compounds were dissolved in physiological saline containing DMSO, and administered through the nasal cavity into the trachea at a dose of 0.04-25 μg/kg and at a volume of 0.4 mL/kg. For control animals, solvent without a test compound was administered. In general, animals awake several minutes after completion of the administration. The animals were anesthetized with an intraperitoneal administration of 33% urethane/0.8% α-chloralose at a dose of 3 mL/kg. In order to intravenously administer acetylcholine or histamine, a catheter was inserted into the carotid artery. In order to measure artificial respiration and airway ventilation pressure, a cannula was inserted into the trachea. Artificial respiration was applied to the animals at a volume of 10 mL/kg and at a frequency of 60/minute, using a ventilator (Harvard Apparatus). The airway ventilation pressure was measured by the Konzett-Roessler method using a general respiratory function analysis system (M.I.P.S). Prior to administration of acetylcholine or histamine, the airway ventilation pressure was measured and baseline values were recorded. Then, physiological saline was administered through the carotid artery catheter at a volume of 0.4 mL/kg, and the airway ventilation pressure was measured. Bronchoconstrictor response was induced by administering acetylcholine (40 μg/kg, 0.4 mL/kg) or histamine (15 μg/kg, 0.4 mL/kg) through the carotid artery catheter one hour after the administration of the test compounds, and the airway ventilation pressure at the maximum contractile response was recorded. In addition, in order to evaluate duration of action of the test compounds, the above-mentioned dose of acetylcholine or histamine was administered, 1 hour, 6 hours, 12 hours, 18 hours, and 24 hours after the administration of test compounds, and the airway ventilation pressure was measured in the same way. The percentage of suppression by the test compounds with respect to the airway contractile response was calculated according to the following formula. (%) Percentage of the airway constriction suppression=(Airway ventilation pressure of test compound-dosed and acetylcholine- or histamine-dosed animals−Baseline value)/(Airway ventilation pressure of acetylcholine- or histamine-dosed animals−Baseline value)×100
The 50% inhibitory doses (ID50 values) of the test compounds were analyzed by a sigmoidal logistic model using XLfit4 (IDBS, Ltd.) for the percentage of the bronchoconstriction suppression at different doses of the test compounds.

[2] = molecular target: T1, human M3 muscarinic receptor (Homo sapiens, UniProt P20309); assay: Inhibitory effect on methacholine-induced calcium influx, FLIPR assay, CHO-K1 cells stably expressing the human M3 muscarinic receptor; format: cell-based; settings: inhibition of calcium influx induced by methacholine
T1 construct: expressed in transfected cells; host or cells: CHO-K1
T1 sequence (P20309 whole entry): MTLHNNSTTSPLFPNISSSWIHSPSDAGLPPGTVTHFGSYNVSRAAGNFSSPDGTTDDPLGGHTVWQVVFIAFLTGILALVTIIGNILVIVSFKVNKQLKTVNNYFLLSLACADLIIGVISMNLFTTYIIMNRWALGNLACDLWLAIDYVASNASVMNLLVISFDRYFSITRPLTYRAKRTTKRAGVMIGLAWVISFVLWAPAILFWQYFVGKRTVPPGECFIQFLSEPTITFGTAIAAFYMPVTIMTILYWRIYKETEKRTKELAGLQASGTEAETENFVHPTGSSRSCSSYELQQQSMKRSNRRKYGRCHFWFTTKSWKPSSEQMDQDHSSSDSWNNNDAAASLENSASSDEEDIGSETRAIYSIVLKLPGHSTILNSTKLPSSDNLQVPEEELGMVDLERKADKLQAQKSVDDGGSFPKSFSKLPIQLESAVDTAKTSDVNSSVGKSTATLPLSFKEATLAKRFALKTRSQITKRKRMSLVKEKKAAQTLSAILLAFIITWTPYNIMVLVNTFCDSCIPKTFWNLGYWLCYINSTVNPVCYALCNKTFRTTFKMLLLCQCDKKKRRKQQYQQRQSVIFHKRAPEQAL
In short: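 Dye-loaded hM3 CHO-K1 cells were preincubated 180 s with compound solutions prepared at 10 two-fold concentrations (0.01–1000 nM). A 30 nM methacholine solution was then added. Fluorescence was traced for 170 s; max−min signal gave % inhibition against agonist and no-agonist controls, and IC50 came from a four-parameter logistic fit.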

Row | IC50 [2] [nM] | SMILES | inhibition in vivo at 0.025 mg/kg [1] [%]
1 | 13.2 | COc1cc(NC(=O)CCCCc2ccc(-c3ccccc3)c(NC(=O)OC3CC[N+](C)(C)CC3)c2)c(Cl)cc1CNC[C@H](O)c1ccc(O)c2[nH]c(=O)ccc12 [Example 51, 4-({[5-(4-{[2-chloro-4-({[(2R)-2-hydroxy-2-(8-hydroxy-2-oxo-1,2-dihydroquinolin-5-yl)ethyl]amino}methyl)-5-methoxyphenyl]carbamoyl}butyl)-2-phenylphenyl]carbamoyl}oxy)-1,1-dimethylpiperidin-1-ium trifluoroacetate] | ≥ 50
2 | 6.4 | C[N+]1(C)CCC(OC(=O)Nc2cc(CCC(=O)Nc3ccc(CNC[C@H](O)c4ccc(O)c5[nH]c(=O)ccc45)cc3)ccc2-c2ccccc2)CC1 [Example 1, 4-({[5-(2-{[4-({[(2R)-2-hydroxy-2-(8-hydroxy-2-oxo-1,2-dihydroquinolin-5-yl)ethyl]amino}methyl)phenyl]carbamoyl}ethyl)-2-phenylphenyl]carbamoyl}oxy)-1,1-dimethylpiperidin-1-ium trifluoroacetate] | ≥ 50

Reference: patent US9072734B2, “Quaternary ammonium salt compounds” (Teijin Pharma Limited, priority 2009, dated 2015)
